Reference: paper PMC12406253, “Exploration of the Neuromodulatory Properties of Fyn and GSK-3β Kinases Exploiting 7‑Azaindole-Based Inhibitors” (Journal of Medicinal Chemistry, 2025)
Where a name gives a salt, the structure may show the parent alone.

Assays:
human recombinant GSK-3β = human recombinant GSK-3β (Homo sapiens, UniProt P49841); assay: GSK-3β kinase assay, LANCE Ultra TR-FRET; assay type: biochemical
Experimental: GSK-3β and FYNα kinase assays were run in 384-well microplates (OptiPlate-384, White, PerkinElmer) in a total reaction volume of 20 μL. The inhibitory potency against human recombinant GSK-3β and FYNα (Carna Biosciences) was evaluated using the LANCE Ultra (PerkinElmer) time-resolved fluorescence resonance energy transfer (TR-FRET) by measuring the phosphorylation of the ULight-labeled substrate, according to the manufacturer's instructions. […] Briefly, test compounds and staurosporine (reference compound) or DMSO (control) are mixed with the enzyme (GSK-3β: 2 nM and FYNα: 1 nM) in a buffer containing 50 mM HEPES (pH 7.5), 1 mM EGTA, 10 mM MgCl2, 2 mM DTT, and 0.01% Tween-20. […] Following incubation, the reaction is stopped by adding 6 mM EDTA. After 5 min, the antiphospho antibody labeled with europium chelate is added. After 1 more hour, the kinase reaction is monitored by irradiation at 320 nm and the fluorescence measured at 615 and 665 nm, using EnVision 2014 Multilabel Reader (PerkinElmer). The calculated signal ratio at 665/615 nm is proportional to the extent of ULight-substrate phosphorylation. The compounds were tested at 11 different concentrations ranging from 3 nM up to 100 μM in triplicate. […] The results were expressed as a percent inhibition of the control enzyme activity. Dose-response curves were run in at least three independent experiments, performed in three technical replicates. IC50 values (concentrations causing half-maximal enzyme inhibition) were determined by nonlinear regression analysis of the Log[concentration]/response curves generated with mean replicate values using a four parameter Hill equation curve fitting with GraphPad Prism 8 (GraphPad Software Inc., CA-USA).

FYNα = FYNα (Homo sapiens, UniProt P06241); assay: FYNα kinase assay, LANCE Ultra TR-FRET; assay type: biochemical; conditions: for inhibition at 50 µM / Fyn % Inhibition @ 50 μM: mean ± SD, n.i. = no inhibition; for inhibition at 50 µM: read-out: Fyn % Inhibition @ 50 μM; for IC50: mean ± SD of at least three independent determinations, ATP near Km, read-out: Fyn IC50
FYNα, sequence (P06241 whole entry): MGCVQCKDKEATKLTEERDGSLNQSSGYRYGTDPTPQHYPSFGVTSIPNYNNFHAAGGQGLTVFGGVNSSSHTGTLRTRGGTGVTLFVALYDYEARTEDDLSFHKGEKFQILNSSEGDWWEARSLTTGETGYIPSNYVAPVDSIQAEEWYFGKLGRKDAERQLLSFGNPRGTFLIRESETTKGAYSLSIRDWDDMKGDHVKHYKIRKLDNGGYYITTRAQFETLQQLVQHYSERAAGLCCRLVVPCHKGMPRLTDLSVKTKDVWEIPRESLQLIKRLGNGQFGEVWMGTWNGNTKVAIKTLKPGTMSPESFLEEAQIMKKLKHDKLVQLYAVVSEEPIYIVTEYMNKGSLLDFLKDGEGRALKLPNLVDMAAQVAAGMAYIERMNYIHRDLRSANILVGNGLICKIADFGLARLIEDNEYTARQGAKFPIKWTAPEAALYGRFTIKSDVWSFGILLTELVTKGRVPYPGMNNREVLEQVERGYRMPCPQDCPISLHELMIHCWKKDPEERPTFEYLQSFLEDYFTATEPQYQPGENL
Experimental: GSK-3β and FYNα kinase assays were run in 384-well microplates (OptiPlate-384, White, PerkinElmer) in a total reaction volume of 20 μL. The inhibitory potency against human recombinant GSK-3β and FYNα (Carna Biosciences) was evaluated using the LANCE Ultra (PerkinElmer) time-resolved fluorescence resonance energy transfer (TR-FRET) by measuring the phosphorylation of the ULight-labeled substrate, according to the manufacturer’s instructions. The synthetic peptide surrounding Ser641 of human muscle glycogen synthase (ULight-GS (Ser641/pSer657)) and the synthetic 28-amino acid peptide containing eight Tyr residues placed in different amino acid contexts (ULightTM-TK (PT66)) were selected as specific substrates for GSK-3β and FYNα, respectively. Briefly, test compounds and staurosporine (reference compound) or DMSO (control) are mixed with the enzyme (GSK-3β: 2 nM and FYNα: 1 nM) in a buffer containing 50 mM HEPES (pH 7.5), 1 mM EGTA, 10 mM MgCl2, 2 mM DTT, and 0.01% Tween-20. […] Following incubation, the reaction is stopped by adding 6 mM EDTA. After 5 min, the antiphospho antibody labeled with europium chelate is added. After 1 more hour, the kinase reaction is monitored by irradiation at 320 nm and the fluorescence measured at 615 and 665 nm, using EnVision 2014 Multilabel Reader (PerkinElmer). The calculated signal ratio at 665/615 nm is proportional to the extent of ULight-substrate phosphorylation. The compounds were tested at 11 different concentrations ranging from 3 nM up to 100 μM in triplicate. […] The results were expressed as a percent inhibition of the control enzyme activity.
Dose–response curves were run in at least three independent experiments, performed in three technical replicates. IC50 values (concentrations causing half-maximal enzyme inhibition) were determined by nonlinear regression analysis of the Log[concentration]/response curves generated with mean replicate values using a four parameter Hill equation curve fitting with GraphPad Prism 8 (GraphPad Software Inc., CA-USA).

[1] = 50 μM, mean ± SD, n.i. = no inhibition

human recombinant GSK-3β, sequence (P49841 whole entry): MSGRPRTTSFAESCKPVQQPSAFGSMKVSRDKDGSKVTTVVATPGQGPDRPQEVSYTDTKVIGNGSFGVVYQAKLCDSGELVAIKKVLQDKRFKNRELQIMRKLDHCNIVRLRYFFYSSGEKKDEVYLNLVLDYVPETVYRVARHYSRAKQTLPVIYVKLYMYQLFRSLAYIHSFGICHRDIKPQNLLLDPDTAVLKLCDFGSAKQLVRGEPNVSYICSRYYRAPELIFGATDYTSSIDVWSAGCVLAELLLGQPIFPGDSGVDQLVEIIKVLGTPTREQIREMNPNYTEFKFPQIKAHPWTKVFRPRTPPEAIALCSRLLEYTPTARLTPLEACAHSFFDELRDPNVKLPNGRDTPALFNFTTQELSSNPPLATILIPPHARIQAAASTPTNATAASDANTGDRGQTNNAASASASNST

Structure (SMILES) | inhibition at 50 µM (human recombinant GSK-3β; [1]) [%] | Fyn % Inhibition @ 50 μM (FYNα) | IC50 (FYNα) [µM] | other results
C=CCNc1nc(-c2c[nH]c3ncccc23)cs1 [Compound 4, N-Allyl-4-(1H-pyrrolo[2,3-b]pyridin-3-yl)thiazol-2-amine Hydrobromide] | 61.6 |  |  | inhibition at 50 µM (FYNα): 28.5%
c1ccc(Nc2nc(-c3c[nH]c4ncccc34)cs2)cc1 [Compound 6, N-Phenyl-4-(1H-pyrrolo[2,3-b]pyridin-3-yl)thiazol-2-amine] |  |  |  | inhibition at 50 µM (FYNα): 40%
Br.c1ccc2c(Nc3nc(-c4c[nH]c5ncccc45)cs3)cccc2c1 [Compound 8, N-(Naphthalen-1-yl)-4-(1H-pyrrolo[2,3-b]pyridin-3-yl)thiazol-2-amine Hydrobromide] | 5.1 | n.i. |  | 
Clc1ccccc1Nc1nc(-c2c[nH]c3ncccc23)cs1 [Compound 9, N-(2-Chlorophenyl)-4-(1H-pyrrolo[2,3-b]pyridin-3-yl)thiazol-2-amine Hydrobromide] | 32.7 |  |  | inhibition at 50 µM (FYNα): 55%
Br.Cc1ccc(Nc2nc(-c3c[nH]c4ncccc34)cs2)cc1 [Compound 11, 4-(1H-Pyrrolo[2,3-b]pyridin-3-yl)-N-(p-tolyl)thiazol-2-amine Hydrobromide] | 50.1 | n.i. |  | 
Br.COc1ccc(Nc2nc(-c3c[nH]c4ncccc34)cs2)cc1 [Compound 12, N-(4-Methoxyphenyl)-4-(1H-pyrrolo[2,3-b]pyridin-3-yl)thiazol-2-amine Hydrobromide] | 34.6 | n.i. |  | 
Br.O=[N+]([O-])c1ccc(Nc2nc(-c3c[nH]c4ncccc34)cs2)cc1 [Compound 14, N-(4-Nitrophenyl)-4-(1H-pyrrolo[2,3-b]pyridin-3-yl)thiazol-2-amine Hydrobromide] | 8 | n.i. |  | 
CN(C)c1ccc(Nc2nc(-c3c[nH]c4ncccc34)cs2)cc1 [Compound 15, N ^1-(4-(1H-Pyrrolo[2,3-b]pyridin-3-yl)thiazol-2-yl)-N,^4 N ^4-dimethylbenzene-1,4-diamine Hydrobromide] |  |  |  | inhibition at 50 µM (FYNα): 11.4%
Nc1ccc(Nc2nc(-c3c[nH]c4ncccc34)cs2)cc1 [Compound 16] |  |  |  | inhibition at 50 µM (FYNα): 42.9%
COc1ccccc1CNc1nc(-c2c[nH]c3ncccc23)cs1 [Compound 17, N-(2-Methoxybenzyl)-4-(1H-pyrrolo[2,3-b]pyridin-3-yl)thiazol-2-amine Hydrobromide] |  |  | 7.29 ± 1.03 | 
Cc1ccc(CNc2nc(-c3c[nH]c4ncccc34)cs2)cc1 [Compound 22, N-(4-Methylbenzyl)-4-(1H-pyrrolo[2,3-b]pyridin-3-yl)thiazol-2-amine Hydrobromide] |  |  |  | inhibition at 100 µM (human recombinant GSK-3β; read-out: GSK-3β percentage of inhibition at the highest dose tested (100 μM)): 77.1%
Nc1ccc(CNc2nc(-c3c[nH]c4ncccc34)cs2)cc1 [Compound 25] |  |  | 18.5 ± 2.49 | 
c1ccc(CCNc2nc(-c3c[nH]c4ncccc34)cs2)cc1 [Compound 31, N-Phenethyl-4-(1H-pyrrolo[2,3-b]pyridin-3-yl)thiazol-2-amine Hydrobromide] |  |  |  | IC50 (human recombinant GSK-3β; mean ± SD of at least three independent determinations, ATP near Km): 7.5 ± 1.29 µM
Br.Clc1cccc2c(-c3csc(NCc4ccccc4)n3)c[nH]c12 [Compound 37] |  | n.i. |  | 
Cc1sc(NCc2ccccc2)nc1-c1c[nH]c2ncccc12 [Compound 39, N-Benzyl-5-methyl-4-(1H-pyrrolo[2,3-b]pyridin-3-yl)thiazol-2-amine Hydrobromide] |  |  | 0.39 ± 0.11 | 

Further lines, with some results ahead:

inhibition at 50 µM (human recombinant GSK-3β; [1]) [%] | Fyn % Inhibition @ 50 μM (FYNα) | IC50 (FYNα) [µM] | Structure (SMILES) | other results
65.8 |  |  | CNc1nc(-c2c[nH]c3ncccc23)cs1 [Compound 1, N-Methyl-4-(1H-pyrrolo[2,3-b]pyridin-3-yl)thiazol-2-amine Hydrobromide] | inhibition at 50 µM (FYNα): 22.3%
54.9 | n.i. |  | Br.CCCCNc1nc(-c2c[nH]c3ncccc23)cs1 [Compound 2, N-Butyl-4-(1H-pyrrolo[2,3-b]pyridin-3-yl)thiazol-2-amine Hydrobromide] | 
58.8 |  |  | COCCNc1nc(-c2c[nH]c3ncccc23)cs1 [Compound 3, N-(2-Methoxyethyl)-4-(1H-pyrrolo[2,3-b]pyridin-3-yl)thiazol-2-amine Hydrobromide] | inhibition at 50 µM (FYNα): 41.7%
37.4 | n.i. |  | Br.c1cnc2[nH]cc(-c3csc(NC4CCCCC4)n3)c2c1 [Compound 5, N-Cyclohexyl-4-(1H-pyrrolo[2,3-b]pyridin-3-yl)thiazol-2-amine Hydrobromide] | 
 |  | 2.04 ± 0.53 | c1ccc(CNc2nc(-c3c[nH]c4ncccc34)cs2)cc1 [Compound 7, N-Benzyl-4-(1H-pyrrolo[2,3-b]pyridin-3-yl)thiazol-2-amine Hydrobromide] | 
24.1 |  |  | c1ccc(Nc2nc(-c3c[nH]c4ncccc34)cs2)nc1 [Compound 10, N-(Pyridin-2-yl)-4-(1H-pyrrolo[2,3-b]pyridin-3-yl)thiazol-2-amine Hydrobromide] | inhibition at 50 µM (FYNα): 3.7%
14.8 | n.i. |  | Br.Clc1ccc(Nc2nc(-c3c[nH]c4ncccc34)cs2)cc1 [Compound 13, N-(4-Chlorophenyl)-4-(1H-pyrrolo[2,3-b]pyridin-3-yl)thiazol-2-amine Hydrobromide] | 
 |  | 5.37 ± 1.29 | Clc1ccccc1CNc1nc(-c2c[nH]c3ncccc23)cs1 [Compound 18, N-(2-Chlorobenzyl)-4-(1H-pyrrolo[2,3-b]pyridin-3-yl)thiazol-2-amine Hydrobromide] | 
 |  | 4.71 ± 0.55 | Clc1cccc(CNc2nc(-c3c[nH]c4ncccc34)cs2)c1 [Compound 19, N-(3-Chlorobenzyl)-4-(1H-pyrrolo[2,3-b]pyridin-3-yl)thiazol-2-amine Hydrobromide] | 
 | n.i. |  | Br.Clc1ccc(CNc2nc(-c3c[nH]c4ncccc34)cs2)cc1 [Compound 20, N-(4-Chlorobenzyl)-4-(1H-pyrrolo[2,3-b]pyridin-3-yl)thiazol-2-amine Hydrobromide] | 
 |  | 7.1 ± 0.47 | Fc1ccc(CNc2nc(-c3c[nH]c4ncccc34)cs2)cc1 [Compound 21, N-(4-Fluorobenzyl)-4-(1H-pyrrolo[2,3-b]pyridin-3-yl)thiazol-2-amine Hydrobromide] | 
 |  | 5.21 ± 0.51 | O=[N+]([O-])c1ccc(CNc2nc(-c3c[nH]c4ncccc34)cs2)cc1 [Compound 24, N-(4-Nitrobenzyl)-4-(1H-pyrrolo[2,3-b]pyridin-3-yl)thiazol-2-amine Hydrobromide] | 
 |  | 15 ± 1.26 | c1cnc(CNc2nc(-c3c[nH]c4ncccc34)cs2)nc1 [Compound 29, N-(Pyrimidin-2-ylmethyl)-4-(1H-pyrrolo[2,3-b]pyridin-3-yl)thiazol-2-amine Hydrobromide] | 
 |  | 7.39 ± 0.37 | c1cnc2[nH]cc(-c3csc(NCc4cnccn4)n3)c2c1 [Compound 30, N-(Pyrazin-2-ylmethyl)-4-(1H-pyrrolo[2,3-b]pyridin-3-yl)thiazol-2-amine Hydrobromide] | 
 | n.i. |  | Br.O=C(Nc1nc(-c2c[nH]c3ncccc23)cs1)c1ccccc1 [Compound 32, N-(4-(1H-Pyrrolo[2,3-b]pyridin-3-yl)thiazol-2-yl)benzamide Hydrobromide] | 
 | n.i. |  | Br.c1ccc(CNc2nc(-c3c[nH]c4ccccc34)cs2)cc1 [Compound 34] | GSK-3β % Inhibition @ 50 μM (human recombinant GSK-3β; [1]): n.i.
 |  | 0.55 ± 0.02 | Brc1cnc2[nH]cc(-c3csc(NCc4ccccc4)n3)c2c1 [Compound 38, N-Benzyl-4-(5-bromo-1H-pyrrolo[2,3-b]pyridin-3-yl)thiazol-2-amine Hydrobromide] | 
